The values below come from patent publication US11116757B2 (priority 2015, dated 2021).

The target of one assay is DCN1-UBC12 interaction (Homo sapiens (Human), UniProt Q96GG9). The experiment in a line: biochemical. Conditions: Table 4, commercial compounds; read-out: TR-FRET IC50. It is filed as binding.
Sequence of DCN1-UBC12 interaction (Q96GG9 60-248 limits assumed): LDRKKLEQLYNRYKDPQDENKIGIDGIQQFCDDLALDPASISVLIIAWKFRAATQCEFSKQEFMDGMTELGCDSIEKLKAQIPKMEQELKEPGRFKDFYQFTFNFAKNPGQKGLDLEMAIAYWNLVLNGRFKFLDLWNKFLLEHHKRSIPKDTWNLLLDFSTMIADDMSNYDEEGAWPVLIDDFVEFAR
Consider `COc1cccc(NC(=O)C2CCN(C(=O)c3cnn(-c4ccccc4)c3-n3cccc3)CC2)c1` [C8], for which the IC50 is greater than 67.6 µM.
The same measure, in the same setting: with `CCc1cccc(NC(=O)C2CCN(C(=O)c3cnn(-c4ccccc4)c3-n3cccc3)CC2)c1` [C69] the figure was greater than 81.4 µM; with `COc1ccc(C(=O)N2CCC(C(=O)Nc3cccc(F)c3)CC2)c2ccccc12` [C58], greater than 67.6 µM.
As for `COc1cccc(NC(=O)C2CCN(C(=O)c3ccc(OC)c4ccccc34)CC2)c1` [C59], the 50% inhibitory concentration (IC50) was greater than 67.6 µM.
On the same count and under the same terms, with `CCc1cccc(NC(=O)C2CCN(C(=O)N3CC(CC)Oc4ccccc43)CC2)c1` (centres unmarked) [C56] the figure was greater than 67.6 µM; with `CCOc1ccc(NC(=O)C2CCN(C(=O)c3ccccc3Cl)CC2)cc1` [C48], greater than 67.6 µM.
The same measure, in the same setting: with `Cc1cccc(NC(=O)C2CCN(C(=O)c3cccc(F)c3)CC2)c1` [C44] the figure was greater than 67.6 µM; with `Cc1cc(C)n(-c2ccc(NC(=O)C3CCN(C(=O)CC(F)(F)F)CC3)cc2)n1` [C34], greater than 67.6 µM.
In the case of `Cc1ccc(NC(=O)C2CCN(C(=O)c3ccccc3C)CC2)cc1Cl` [C14], the IC50 is greater than 67.6 µM.
Same read-out and setting: with `CC(=O)N1CCC(C(=O)Nc2cccc(C)c2C)CC1` [C41] the figure was greater than 67.6 µM; with `COc1ccc(OC)c(NC(=O)C2CCN(C(C)=O)CC2)c1` [C33], greater than 67.6 µM.

Staying with this assay, now noted: Table 6, commercial compounds; read-out: TR-FRET IC50.
Consider `Cc1c(C(=O)N(C)CC(C)C)cnn1-c1nccc(-c2cccs2)n1` [E6], for which the IC50 was determined as 18.8 µM.
The same measure, in the same setting: with `Cc1cnc(-n2ncc(C(=O)N3CCN(C(C)C)CC3)c2C2CC2)nc1-c1cccs1` [E40] the figure was greater than 67.6 µM.
Same read-out and setting: with `CCN1CCN(C(=O)c2cnn(-c3ncc(C)c(-c4cccs4)n3)c2COC)CC1` [E20] the figure was 48.2 µM.
On the same count and under the same terms, with `COCc1c(C(=O)N2CCN(C(C)C)CC2)cnn1-c1ncc(C)c(-c2cccs2)n1` [E21] the figure was 49.2 µM.
Regarding `CCCCN(C)C(=O)c1cnn(-c2ncc(C)c(-c3cccs3)n2)c1C` [E42], the IC50 was greater than 67.6 µM.
Same read-out and setting: with `COCCN1CCN(C(=O)c2cnn(-c3nccc(-c4cccs4)n3)c2C(C)C)CC1` [E17] the figure was 34.4 µM; with `CCCN1CCN(C(=O)c2cnn(-c3nccc(-c4cccs4)n3)c2C)CC1` [E60], greater than 68 µM.

The same assay, now with this note: Table 7, commercial compounds; read-out: TR-FRET IC50.
Consider `COc1cccc(C2c3c(C)nn(C)c3NC(=O)C2NC(=O)c2ccc(OC)c(OC)c2)c1` (centres unmarked) [F21], for which the IC50 was greater than 67.6 µM.
On to `COc1ccc(C2c3c(C)nn(C)c3NC(=O)C2NC(=O)c2ccccc2)cc1OC` (centres unmarked) [F29], for which the IC50 is greater than 67.6 µM.
The same measure, in the same setting: with `CCOc1ccc(C2c3c(C)nn(C)c3NC(=O)C2NC(=O)c2cccc(C)c2)cc1OC` (centres unmarked) [F18] the figure was greater than 67.6 µM.

The assay is the same for the next values; noted with them: read-out: TR-FRET IC50.
In the case of `CCCC(C)N1CCC(N(Cc2ccccc2)C(=O)Nc2ccc(C)cc2)CC1` (centres unmarked) [A50], the IC50 was determined as 0.268 µM.
Take `CCCCN1CCC(N(Cc2ccccc2)C(=O)Nc2cccnc2)CC1` [A280]: the IC50 is greater than 70.1 µM.
Consider `CCCCN1C(C)CC(N(Cc2ccccc2)C(=O)Nc2cccc(C(F)(F)F)c2)CC1C` (centres unmarked) [A71], for which the concentration for half-maximal inhibition (IC50) is 0.589 µM.
Still for that read-out and setting: with `CCCN1CCC(N(CC(C)C)C(=O)Nc2cccc(C(F)(F)F)c2)CC1` [A146, 1-Isobutyl-1-(1-Propylpiperidin-4-yl)-3-(3-(Trifluoromethyl)Phenyl)Urea] the figure was 4.81 µM; with `CCCC(C)N1CCC(N(Cc2ccccc2)C(=O)Nc2cccc(Cl)c2F)CC1` (centres unmarked) [A62], 0.385 µM; with `CCCC(C)N1CCC(N(Cc2ccccc2)C(=O)Nc2ccc(OC)c(Cl)c2)CC1` (centres unmarked) [A138], 4.05 µM.
Consider `CCCC(C)N1CCC(N(Cc2ccccc2)C(=O)Nc2ccc(OC)cc2OC)CC1` (centres unmarked) [A196], for which the IC50 is greater than 11.8 µM.
On the same count and under the same terms, with `CCCC(C)N1CCC(N(Cc2ccccc2)C(=O)Nc2ccc(Cl)c(Cl)c2)CC1` (centres unmarked) [A46] the figure was 0.257 µM; with `O=C(Nc1cccc(C(F)(F)F)c1)N[C@H]1CCN(Cc2ccccc2)C[C@@H]1O` [A185], 30 µM.
Same read-out and setting: with “1-Benzyl-1-(1-(Cyclohexylmethyl)Piperidin-4-yl)-3-(3-(Trifluoromethyl)Phenyl)Urea [A149]” the figure was 5.25 µM; with `CC(Cc1cccc(C(F)(F)F)c1)NC1CCN(Cc2ccccc2)CC1` (centres unmarked) [B38], greater than 61.3 µM.
Turning to `O=C(Nc1ccc(F)c(Cl)c1)N(Cc1ccc2c(c1)OCO2)C1CCN(Cc2ccccc2)CC1` [B16], the IC50 is 50.7 µM.
On to `CC(=O)O[C@H]1CN(Cc2ccccc2)CC[C@@H]1NC(=O)Nc1cccc(C(F)(F)F)c1` [A160], for which the IC50 is 7.89 µM.
In the case of `CCCC(C)N1CCC(N(Cc2ccccc2)C(=O)Nc2cc(OC)cc(OC)c2)CC1` (centres unmarked) [A273], the IC50 was greater than 68 µM.
On the same count and under the same terms, with `CCOc1ccc(C(=O)NCC(=O)N2CCC(c3nc4ccccc4s3)CC2)cc1` [D33] the figure was greater than 67.6 µM.
The same measure, in the same setting: with `CCCC(C)N1CCC(N(Cc2ccccc2)C(=O)Nc2ccc([N+](=O)[O-])c(C(F)(F)F)c2)CC1` (centres unmarked) [A237] the figure was greater than 48.4 µM.
The same measure, in the same setting: with `CCCCN1CCC(N(Cc2ccccc2)C(=O)Nc2ccc(OC)c(Cl)c2)CC1` [A287] the figure was greater than 72.5 µM; with `O=C(Nc1cccc(CN2CCOCC2)c1)NC1CCN(Cc2ccccc2)CC1` [A276, 1-(1-Benzylpiperidin-4-yl)-3-(3-(Morpholinomethyl)Phenyl)Urea], greater than 68.7 µM; with `O=C(c1ccc(Br)cc1)N1CCC(c2nc3ccccc3s2)CC1` [D9], 21.8 µM.
For `COc1ccc(CN(C(=O)Nc2ccc(Cl)cc2)C2CCN(C(C)=O)CC2)cc1` [B81], the IC50 is greater than 67.6 µM.
On the same count and under the same terms, with `CCN1CCC(N(Cc2ccc3c(c2)OCO3)C(=O)Nc2cccc(Br)c2)CC1` [B4] the figure was 4.06 µM; with `O=C(Nc1ccc(Cl)cc1)NC1CCN(Cc2ccccc2)CC1` [B58], greater than 67.6 µM.
On the same count and under the same terms, with `Cc1ccc(CN(C(=O)Nc2ccccc2F)C2CCN(Cc3ccccc3)CC2)o1` [B94] the figure was greater than 67.6 µM.
On the same count and under the same terms, with `CCCC(C)N1CCC(N(Cc2ccccc2)C(=O)Nc2cnc(Cl)nc2)CC1` (centres unmarked) [A241] the figure was greater than 52.4 µM; with `O=C(c1ccc(I)cc1)N1CCCC(c2nc3ccccc3s2)C1` (centres unmarked) [D31], greater than 67.6 µM; with `C=CC(=O)NCCCN(C(=O)Nc1cccc(C(F)(F)F)c1)C1CCN(C(C)CCC)CC1` (centres unmarked) [A134], 3.34 µM.
On to `C=CS(=O)(=O)NCc1cccc(CN(C(=O)Nc2cccc(C(F)(F)F)c2)C2CCN(C(C)CCC)CC2)c1` (centres unmarked) [drawing 849], for which the IC50 was less than 0.01 µM.
On the same count and under the same terms, with `O=C(CN1CCN(Cc2ccccc2)CC1)Nc1cc(C(F)(F)F)ccc1Cl` [B113] the figure was greater than 74 µM; with `CCCC(C)N1CCC(N(Cc2ccccc2)C(=O)Nc2ccc(Cl)c(C(F)(F)F)c2)CC1` (centres unmarked) [A64], 0.414 µM; with `CCCC(C)N1CCC(N(Cc2ccccc2)C(=O)Nc2cccc(F)c2Cl)CC1` (centres unmarked) [A168], 10.6 µM.
Turning to `O=C(Nc1cc(F)cc(C(F)(F)F)c1)N(Cc1ccccc1)C1CCN(Cc2ccc[nH]2)CC1` [A215], the IC50 was greater than 23.4 µM.
On the same count and under the same terms, with `CCCC(C)N1CCC(N(Cc2ccccc2)C(=O)Nc2ccc(F)c(S(F)(F)(F)(F)F)c2)CC1` (centres unmarked) [A54] the figure was 0.295 µM; with `CCCC(C)N1CCC(N(CCNC(=O)CCl)C(=O)Nc2cccc(C(F)(F)F)c2)CC1` (centres unmarked) [A251], greater than 59.9 µM.
In the case of `CCCC(C)N1CCC(N(Cc2ccccc2CNC(=O)CCl)C(=O)Nc2cccc(C(F)(F)F)c2)CC1` (centres unmarked) [drawing 848], the half-inhibitory concentration (IC50) was determined as 0.154 µM.
On the same count and under the same terms, with `Cc1ccc(C(=O)N2CCC(c3nc4ccccc4s3)CC2)cc1` [D3] the figure was 14.7 µM; with `O=C(NC1CCN(Cc2ccc(F)cc2)CC1)C(F)(F)F` [A305], greater than 92.7 µM.
The same measure, in the same setting: with `O=C(Nc1cccc(C(F)(F)F)c1)NC1CCN(Cc2ccc(F)cc2)CC1` [A172, 1-(1-(4-Fluorobenzyl)Piperidin-4-yl)-3-(3-(Trifluoromethyl)Phenyl)Urea] the figure was 12.9 µM.
For `Cc1nc(NC(=O)NC2CCN(Cc3ccccc3)CC2)nn1C` [B25], the IC50 is greater than 16.3 µM.
On the same count and under the same terms, with `CCCC(C)N1CCC(N(Cc2ccccc2)C(=O)Nc2cccc(Cc3ccccc3)c2)CC1` (centres unmarked) [A23] the figure was 0.14 µM; with `CCCC(C)N1CCC(N(Cc2ccccc2)C(=O)Nc2ccc(F)c(-c3nc4ccccc4o3)c2)CC1` (centres unmarked) [A268], greater than 67.1 µM.
Still for that read-out and setting: with `COc1ccc(CN(C(=O)Nc2ccc(C)cc2)C2CCN(C(C)=O)CC2)cc1` [B83] the figure was greater than 67.6 µM; with `Cn1c(CN2CCC(N(Cc3ccccc3)C(=O)Nc3cc(F)cc(C(F)(F)F)c3)CC2)nc2ccccc21` [A203], greater than 20.2 µM.
Still for that read-out and setting: with `CCCC(C)N1CCC(N(Cc2ccccc2)C(=O)Nc2cc(F)cc(Cl)c2)CC1` (centres unmarked) [A67] the figure was 0.482 µM.
Regarding `CCCC(C)N1CCC(N(Cc2ccccc2)C(=O)Nc2ccc3cn[nH]c3c2)CC1` (centres unmarked) [A108], the IC50 turned out to be 2.11 µM.
For `FC(F)(F)c1ccnc(NC2CCN(Cc3ccccc3)CC2)n1` [B124], the IC50 is greater than 90.4 µM.
On the same count and under the same terms, with `CCCC(C)N1CCC(N(Cc2ccccc2)C(=O)Nc2cc(C)cc(C)c2)CC1` (centres unmarked) [A98] the figure was 1.38 µM; with `O=C(c1ccc(Cl)c(Cl)c1)N1CCC(c2nc3ccccc3s2)CC1` [D7], 19.5 µM.
On the same count and under the same terms, with `C=CC(=O)Nc1cccc(CN(C(=O)Nc2cccc(C(F)(F)F)c2)C2CCN(C(C)CCC)CC2)c1` (centres unmarked) [drawing 840] the figure was 0.11 µM; with `COc1ccccc1NC(=O)N(CCCN1CCC(C)CC1)C1CCN(C(C)=O)CC1` [B96], greater than 67.6 µM.
On the same count and under the same terms, with “1-Benzyl-1-(1-(Cyclopropylmethyl)Piperidin-4-yl)-3-(3-(Trifluoromethyl)Phenyl)Urea [A30]” the figure was 0.178 µM; with `O=C(Nc1cccc(C(F)(F)F)c1)NC1CCN(Cc2ccccc2F)CC1` [A238, 1-(1-(2-Fluorobenzyl)Piperidin-4-yl)-3-(3-(Trifluoromethyl)Phenyl)Urea], greater than 49.4 µM.
In the case of `C#CCCCN1CCC(N(Cc2ccccc2NC(=O)CC)C(=O)Nc2cccc(C(F)(F)F)c2)CC1` [A198], the half-maximal inhibitory concentration (IC50) was greater than 12.9 µM.
“1-Benzyl-1-(1-(4-Fluorobenzyl)Piperidin-4-yl)-3-(3-(Trifluoromethyl)Phenyl)Urea [A171]”: the IC50 came to 12.7 µM.
With `O=C(Nc1cccc2ccccc12)NC1CCN(Cc2ccccc2)CC1` [B39], the IC50 is greater than 61.8 µM.
On the same count and under the same terms, with `CC(c1ccccc1)N1CCC(N(Cc2ccccc2)C(=O)Nc2cc(F)cc(C(F)(F)F)c2)CC1` (centres unmarked) [A148] the figure was 4.98 µM; with `CCN1CCC(N(Cc2ccco2)C(=O)Nc2ccc(F)c(Cl)c2)CC1` [B104], greater than 70.9 µM.
